Publication PMC4403932 (Journal of Medicinal Chemistry, 2015)
Like-named read-outs stand apart in the source and are kept apart here.

Tests used:
[1] = test system: human bromodomains (panel); assay: Protein stability (thermal) shift assay, whole panel of human bromodomains; format: binding; conditions: 10 μM compound
Protocol: Thermal melting experiments were carried out using an Mx3005p real time PCR machine (Stratagene). Proteins were buffered in 10 mM HEPES, pH 7.5, 500 mM NaCl and assayed in a 96-well plate at a final concentration of 2 μM in 20 μL volume. Compounds were added at a final concentration of 10 or 100 μM. SYPRO Orange (Molecular Probes) was added as a fluorescence probe at a dilution of 1 in 1000. Excitation and emission filters for the SYPRO-Orange dye were set to 465 and 590 nm, respectively. The temperature was raised with a step of 3 °C per minute from 25 to 96 °C, and fluorescence readings were taken at each interval. The temperature dependence of the fluorescence during the protein denaturation process was approximated by the equation [drawing 1] where ΔuG is the difference in unfolding free energy between the folded and unfolded state, R is the gas constant, and yF and yU are the fluorescence intensity of the probe in the presence of completely folded and unfolded protein, respectively.[65] The baselines of the denatured and native states were approximated by a linear fit. The observed temperature shifts, ΔTm^obs, were recorded as the difference between the transition midpoints of sample and reference wells containing protein without ligand in the same plate and determined by nonlinear least-squares fit. Temperature shifts (ΔTm^obs) for three independent measurements per proteins/compound are summarized in Supporting Information Table S1.

PB1(5) = biological target: T1, PB1(5) (Homo sapiens, UniProt Q86U86); assay: Protein stability (thermal) shift assay, PB1(5); format: binding; conditions: compound 10 μM, protein 2 μM; average of triplicate
T1 construct: made in house
T1 sequence (Q86U86 653-763 limits assumed): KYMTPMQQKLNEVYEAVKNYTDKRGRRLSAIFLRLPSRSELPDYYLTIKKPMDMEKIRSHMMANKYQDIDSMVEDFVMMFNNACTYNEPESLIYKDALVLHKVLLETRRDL

BRDT(2) = biological target: T2, BRDT(2) (Homo sapiens, UniProt Q58F21); assay: Protein stability (thermal) shift assay, BRDT(2); format: binding; conditions: compound 10 μM, protein 2 μM; average of triplicate; read-out: ΔTm Shift, BRDT(2)
T2 construct: made in house

BRD2(1) = biological target: T3, BRD2(1) (Homo sapiens, UniProt P25440); assay: Protein stability (thermal) shift assay, BRD2(1); format: binding; conditions: compound 10 μM, protein 2 μM; average of triplicate
T3 construct: Fragments were tested in a thermal shift assay against bromodomains of the BET subfamily; made in house
T3 sequence (P25440 74-180 limits assumed): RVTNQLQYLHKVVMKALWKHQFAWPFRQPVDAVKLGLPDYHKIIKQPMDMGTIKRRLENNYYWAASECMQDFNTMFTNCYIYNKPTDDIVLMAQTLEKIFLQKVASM

BRD3(2) = biological target: T4, BRD3(2) (Homo sapiens, UniProt Q15059); assay: Protein stability (thermal) shift assay, BRD3(2); format: binding; conditions: compound 10 μM, protein 2 μM; average of triplicate
T4 construct: made in house
T4 sequence (Q15059 306-415 limits assumed): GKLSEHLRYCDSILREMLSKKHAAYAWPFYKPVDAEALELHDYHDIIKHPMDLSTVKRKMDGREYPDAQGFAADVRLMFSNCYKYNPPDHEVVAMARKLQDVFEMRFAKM

CREBBP = biological target: T5, CREBBP (Homo sapiens, UniProt Q92793); assay: Protein stability (thermal) shift assay, CREBBP; format: binding; conditions: compound 10 μM, protein 2 μM; average of triplicate; read-out: ΔTm Shift, CREBBP
T5 construct: small thermal shits (1.0–1.3 °C) for the bromodomain of CREBBP; made in house
T5 sequence (Q92793 1085-1192 limits assumed): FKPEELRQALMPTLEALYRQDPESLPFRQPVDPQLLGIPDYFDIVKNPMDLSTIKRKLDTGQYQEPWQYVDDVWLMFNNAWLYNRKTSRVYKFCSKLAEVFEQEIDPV

BRD9 [2] = biological target: T6, BRD9 (Homo sapiens, UniProt Q9H8M2); assay: Isothermal titration calorimetry, BRD9; format: binding; conditions: for Kd / TΔS / ΔG / N (stoichiometry) / ΔHobs: ITC; for LE (ligand efficiency): LE = ΔG/N, N number of non-hydrogen atoms
T6 construct: made in house
T6 sequence (Q9H8M2 136-240 limits assumed): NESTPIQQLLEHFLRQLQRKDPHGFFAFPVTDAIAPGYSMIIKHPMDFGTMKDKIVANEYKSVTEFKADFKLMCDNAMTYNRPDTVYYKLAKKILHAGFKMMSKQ
Protocol: Experiments were carried out on an ITC200 titration microcalorimeter from MicroCal, LLC (GE Healthcare) equipped with a Washing module, with a cell volume of 0.2003 mL, and a 40 μL microsyringe. Experiments were carried out at 15 °C while stirring at 1000 rpm, in ITC buffer (50 mM HEPES, pH 7.5 (at 25 °C), 150 mM NaCl). The microsyringe was loaded with a solution of the protein sample (300−740 μM protein for BRD9 and BRD4(1), respectively, in ITC buffer) and was carefully inserted into the calorimetric cell which was filled with an amount of the ligand (0.2 mL, 20–25 μM in ITC buffer). The system was first allowed to equilibrate until the cell temperature reached 15 °C, and an additional delay of 60 s was applied. All titrations were conducted using an initial control injection of 0.3 μL followed by 38 identical injections of 1 μL with a duration of 2 s (per injection) and a spacing of 120 s between injections. The titration experiments were designed in such a fashion as to ensure complete saturation of the proteins before the final injection. The heat of dilution for the proteins was independent of their concentration and corresponded to the heat observed from the last injection, following saturation of ligand binding, thus facilitating the estimation of the baseline of each titration from the last injection. The collected data were corrected for protein heats of dilution (measured on separate experiments by titrating the proteins into ITC buffer) and deconvoluted using the MicroCal Origin software supplied with the instrument to yield enthalpies of binding (ΔH) and binding constants (KB) in the same fashion as that previously described in detail by Wiseman and co-workers.[66] Thermodynamic parameters were calculated using the basic equation of thermodynamics (ΔG = ΔH – TΔS = −RT ln KB, where ΔG, ΔH, and ΔS are the changes in free energy, enthalpy, and entropy of binding, respectively). In all cases a single binding site model was employed, supplied with the MicroCal Origin software package.

BRDT(1) = biological target: T7, BRDT(1) (Homo sapiens, UniProt Q58F21); assay: Protein stability (thermal) shift assay, BRDT(1); format: binding; conditions: compound 10 μM, protein 2 μM; average of triplicate
T7 construct: made in house

BRD3(1) = biological target: T8, BRD3(1) (Homo sapiens, UniProt Q15059); assay: Protein stability (thermal) shift assay, BRD3(1); format: binding; conditions: compound 10 μM, protein 2 μM; average of triplicate
T8 construct: Fragments were tested in a thermal shift assay against bromodomains of the BET subfamily; made in house
T8 sequence (Q15059 34-140 limits assumed): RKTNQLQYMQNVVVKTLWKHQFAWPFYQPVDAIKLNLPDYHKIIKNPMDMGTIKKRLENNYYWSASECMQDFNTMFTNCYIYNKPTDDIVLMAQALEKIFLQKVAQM

BAZ2B = biological target: T9, BAZ2B (Homo sapiens, UniProt Q9UIF8); assay: Protein stability (thermal) shift assay, BAZ2B; format: binding; conditions: compound 10 μM, protein 2 μM; average of triplicate; read-out: ΔTm Shift, BAZ2BA
T9 construct: representative BRDs from other structural subfamilies (family I, PCAF); family III, CREBBP; family IV, BRD9; family V, BAZ2B; made in house
T9 sequence (Q9UIF8 2060-2164 limits assumed): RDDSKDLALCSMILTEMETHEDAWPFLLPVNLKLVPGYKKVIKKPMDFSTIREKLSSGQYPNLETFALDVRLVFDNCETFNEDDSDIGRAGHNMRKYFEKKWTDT

BRD9 [3] = biological target: T6, BRD9; assay: Protein stability (thermal) shift assay, BRD9; format: binding; conditions: compound 10 μM, protein 2 μM; average of triplicate; read-out: ΔTm Shift, BRD9
BRD4(1) = biological target: T10, BRD4(1) (Homo sapiens, UniProt O60885); assay: Protein stability (thermal) shift assay, BRD4(1); format: binding; conditions: compound 10 μM, protein 2 μM; average of triplicate; read-out: ΔTm Shift, BRD4(1)
T10 construct: made in house

PCAF = biological target: T11, PCAF (Homo sapiens, UniProt Q92831); assay: Protein stability (thermal) shift assay, PCAF; format: binding; conditions: compound 10 μM, protein 2 μM; average of triplicate
T11 construct: representative BRDs from other structural subfamilies (family I, PCAF); made in house
T11 sequence (Q92831 723-827 limits assumed): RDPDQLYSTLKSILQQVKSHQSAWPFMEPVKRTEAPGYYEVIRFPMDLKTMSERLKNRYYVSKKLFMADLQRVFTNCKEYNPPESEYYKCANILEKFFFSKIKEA

BRD2(2) = biological target: T12, BRD2(2) (Homo sapiens, UniProt P25440); assay: Protein stability (thermal) shift assay, BRD2(2); format: binding; conditions: compound 10 μM, protein 2 μM; average of triplicate
T12 construct: made in house
T12 sequence (P25440 344-453 limits assumed): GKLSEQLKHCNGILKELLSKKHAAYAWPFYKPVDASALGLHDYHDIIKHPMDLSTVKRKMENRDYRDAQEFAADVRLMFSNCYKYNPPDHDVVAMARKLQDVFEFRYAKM

BRD4(2) = biological target: T13, BRD4(2) (Homo sapiens, UniProt O60885); assay: Protein stability (thermal) shift assay, BRD4(2); format: binding; conditions: compound 10 μM, protein 2 μM; average of triplicate
T13 construct: made in house

[4] = Solubility (observation in words); format: physicochemical
[5] = 50 mM HEPES pH 7.5, 150 mM NaCl, 15 °C, reverse titration, triplicate, read-out: KD

Row | Structure (SMILES) | binding to the bromodomain panel in the ΔTm assay (in words) [1] | ΔTm at 10 µM (PB1(5)) [°C] | ΔTm at 10 µM (BRDT(2)) [°C] | ΔTm at 10 µM (BRD2(1)) [°C] | ΔTm at 10 µM (BRD3(2)) [°C] | ΔTm at 10 µM (CREBBP) [°C] | Kd (BRD9 [2]; [5]) [µM] | TΔS (BRD9 [2]; 15 °C) | ΔG (BRD9 [2]; 15 °C) | N (stoichiometry) (BRD9 [2]; 15 °C, reverse titration) | ΔHobs (BRD9 [2]; 15 °C, reverse titration) | LE (ligand efficiency) (BRD9 [2]) | ΔTm at 10 µM (BRDT(1)) [°C] | ΔTm at 10 µM (BRD3(1)) [°C] | ΔTm at 10 µM (BAZ2B) [°C] | ΔTm at 10 µM (BRD9 [3]) [°C] | ΔTm at 10 µM (BRD4(1)) [°C] | ΔTm at 10 µM (PCAF) [°C] | ΔTm at 10 µM (BRD2(2)) [°C] | ΔTm at 10 µM (BRD4(2)) [°C] | further results
1 | COc1ccc(Br)cc1-c1nc(Cl)nc2[nH]cnc12 [Compound 8a, 6-(5-Bromo-2-methoxyphenyl)-2-chloro-9H-purine] | loss of affinity toward all BRDs | 1.3 | -0.164 | 0.8 | -0.00857 | 2.5 | 7.87 ± 0.258 | –1.57 kcal/mol | –6.73 kcal/mol | 1.06 ± 0.014 | –8.30 ± 0.15 kcal/mol | 0.35 | -0.541 | 1 | -0.7 | 0.9 | 1.3 | -0.4 | -0.564 | 0.3 | Kd (BRD9 [2]; read-out: dissociation constant): 7.9 µM
2 | COc1ccc(Cl)cc1-c1nc(O)nc2[nH]cnc12 [Compound 8e, 6-(5-Chloro-2-methoxyphenyl)-2-hydroxy-9H-purine] | promiscuously bound to most bromodomains | 1.7 | 1.8 | 2.1 | 1.3 | 1 | 7.58 ± 0.365 | 1.40 kcal/mol | –6.75 kcal/mol | 1.05 ± 0.013 | –5.35 ± 0.09 kcal/mol | 0.36 | 1.5 | 1.9 | 1.2 | -0.2 | 2.3 | 2 | 1.2 | 1.3 | 
3 | COc1ccc(Br)cc1-c1ncnc2[nH]c(C)nc12 [Compound 9a, 6-(5-Bromo-2-methoxyphenyl)-8-methyl-9H-purine] |  |  |  |  |  |  |  |  |  |  |  |  |  |  |  |  |  |  |  |  | solubility (in words) [4]: low solubility
4 | Nc1nc(-c2cccc3c2Sc2ccccc2S3)c2nc[nH]c2n1 [Compound 10, 2-Amino-6-thianthrenyl-9H-purine] |  |  |  |  |  |  |  |  |  |  |  |  |  |  |  | 0.158 |  |  |  |  | solubility (in words) [4]: low solubility
